Reference: BindingDB's records for doi:10.1021/jm960276a (Texas A&M University, 1996)
Square brackets hold non-standard residues; d marks the D form. Peptide text beside a SMILES is read from it. NMeR = CN[C@@H](CCCNC(=N)N)C(=O)O; 3Amb = NCc1cccc(C(=O)O)c1; dAbu = CC[C@@H](N)C(=O)O

Target: Integrin alpha-IIb/beta-3 (Homo sapiens, UniProt P08514+P05106)
Assay: Inhibition of human platelet aggregation mediated by alpha llb/beta3 interaction with fibrinogen

Integrin alpha-IIb/beta-3, sequence (P05106 27-788 limits assumed): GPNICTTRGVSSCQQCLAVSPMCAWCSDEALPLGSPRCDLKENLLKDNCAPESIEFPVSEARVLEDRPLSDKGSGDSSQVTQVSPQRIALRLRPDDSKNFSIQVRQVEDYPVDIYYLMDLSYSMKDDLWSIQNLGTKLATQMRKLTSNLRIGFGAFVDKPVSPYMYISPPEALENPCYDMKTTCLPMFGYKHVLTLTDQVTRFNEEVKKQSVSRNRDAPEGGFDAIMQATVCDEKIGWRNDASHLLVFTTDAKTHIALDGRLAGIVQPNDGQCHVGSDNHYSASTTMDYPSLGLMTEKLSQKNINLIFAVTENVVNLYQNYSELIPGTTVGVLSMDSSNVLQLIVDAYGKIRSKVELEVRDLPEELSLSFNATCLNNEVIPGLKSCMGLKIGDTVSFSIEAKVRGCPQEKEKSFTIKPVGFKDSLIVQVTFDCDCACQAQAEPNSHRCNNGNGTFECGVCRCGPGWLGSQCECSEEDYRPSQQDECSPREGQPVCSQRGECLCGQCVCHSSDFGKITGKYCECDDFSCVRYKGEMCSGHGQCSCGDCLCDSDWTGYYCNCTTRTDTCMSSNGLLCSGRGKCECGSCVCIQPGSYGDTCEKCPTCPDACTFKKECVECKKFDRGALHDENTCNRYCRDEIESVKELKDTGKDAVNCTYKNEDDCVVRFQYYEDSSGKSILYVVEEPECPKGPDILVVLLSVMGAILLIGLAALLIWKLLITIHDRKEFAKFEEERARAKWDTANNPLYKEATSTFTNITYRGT
Integrin alpha-IIb/beta-3, sequence (P08514 32-887 limits assumed): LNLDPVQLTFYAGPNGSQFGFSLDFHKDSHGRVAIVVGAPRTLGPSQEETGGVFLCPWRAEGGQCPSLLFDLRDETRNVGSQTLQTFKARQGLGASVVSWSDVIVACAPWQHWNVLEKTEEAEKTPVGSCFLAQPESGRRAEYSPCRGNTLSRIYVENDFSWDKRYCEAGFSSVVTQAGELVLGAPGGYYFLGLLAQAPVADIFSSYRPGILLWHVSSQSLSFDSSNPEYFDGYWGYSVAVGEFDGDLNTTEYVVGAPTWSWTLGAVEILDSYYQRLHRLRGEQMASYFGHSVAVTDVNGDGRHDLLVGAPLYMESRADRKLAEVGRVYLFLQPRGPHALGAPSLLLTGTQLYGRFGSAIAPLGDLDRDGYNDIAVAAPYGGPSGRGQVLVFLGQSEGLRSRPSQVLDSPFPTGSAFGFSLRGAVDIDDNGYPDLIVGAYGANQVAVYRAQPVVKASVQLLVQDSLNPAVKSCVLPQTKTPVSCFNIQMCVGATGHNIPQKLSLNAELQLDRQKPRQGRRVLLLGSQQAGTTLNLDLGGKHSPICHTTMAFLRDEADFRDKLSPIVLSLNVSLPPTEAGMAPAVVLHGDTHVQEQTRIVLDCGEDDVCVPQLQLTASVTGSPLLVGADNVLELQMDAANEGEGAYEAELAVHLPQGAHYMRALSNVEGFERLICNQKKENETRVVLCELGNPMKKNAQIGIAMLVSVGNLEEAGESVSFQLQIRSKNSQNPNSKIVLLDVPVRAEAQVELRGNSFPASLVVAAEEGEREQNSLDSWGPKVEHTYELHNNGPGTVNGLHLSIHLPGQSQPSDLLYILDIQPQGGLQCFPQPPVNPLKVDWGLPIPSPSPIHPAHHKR
Integrin alpha-IIb/beta-3, sequence (P08514 891-1039 limits assumed): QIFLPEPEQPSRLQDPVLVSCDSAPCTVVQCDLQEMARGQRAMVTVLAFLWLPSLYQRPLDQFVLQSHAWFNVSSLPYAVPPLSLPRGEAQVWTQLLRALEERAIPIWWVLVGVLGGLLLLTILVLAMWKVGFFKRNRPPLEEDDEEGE

First: CC[C@H]1NC(=O)c2cccc(c2)CNC(=O)[C@H](CC(=O)O)NC(=O)CNC(=O)[C@H](CCCN=C(N)N)N(C)C1=O [DMP-728] (cyclo([NMeR]GD[3Amb][dAbu]))
Second: N=C(N)NCCC[C@@H]1NC(=O)[C@H](CC(=O)O)NC(=O)CNC(=O)[C@H](CCCNC(=N)N)NC(=O)[C@H](CC(=O)O)NC(=O)CNC1=O [[(2S,5R,11R,14S)-11-Carboxymethyl-5,14-bis-(3-guanidino-propyl)-3,6,9,12,15,18-hexaoxo-1,4,7,10,13,16hexaaza-cyclooctadec-2-yl]-acetic acid]
The IC50 of the first is lower: 0.02 µM for the first, over 100 µM for the second.

`N=C(N)NCCC[C@H](NC(=O)[C@H](CC(=O)O)NC(=O)CNC(=O)[C@@H](N)CCCNC(=N)N)C(=O)NCC(=O)N[C@@H](CC(=O)O)C(=O)O` [(S)-2-[2-((S)-2-{(S)-2-[2-((S)-2-Amino-5-guanidino-pentanoylamino)-acetylamino]-3-carboxy-propionylamino}-5-guanidino-pentanoylamino)-acetylamino]-succinic acid] (H-RGDRGD-OH) and `N=C(N)NCCC[C@@H]1NC(=O)[C@H](CC(=O)O)NC(=O)CNC(=O)[C@H](CCCNC(=N)N)NC(=O)[C@@H](CC(=O)O)NC(=O)CNC1=O` [[(2S,5R,11S,14S)-11-Carboxymethyl-5,14-bis-(3-guanidino-propyl)-3,6,9,12,15,18-hexaoxo-1,4,7,10,13,16hexaaza-cyclooctadec-2-yl]-acetic acid] cannot be ordered by IC50: over 100 µM for the first, over 100 µM for the second.
